The record followed here is patent US8829203B2, “3′,6-substituted indirubins and their biological applications” (Centre National de la Recherche Scientifique (CNRS), priority 2008, dated 2014).

For assay [1], the system named is Per2 promoter (PPer2) activity, Rat-1 fibroblasts. As to the kind of experiment: Luminescence assay of circadian rhythmicity, Rat-1 fibroblasts PPer2::Fluc. The assay is classed as cell-based. Conditions: 10 μM, left continuously, monitored 4 days. On the procedure:
FIGS. 3a and 3b: the alteration of the circadian period in mammalian fibroblasts by the indirubin derivatives. Rat-1 fibroblasts stably transfected with a PPer2::Fluc reporter construct show a robust circadian rhythm of luminescence as a gauge of clock-controlled Per2 promoter (PPer2) activity. Cells were cultured up to 100% confluence and treated for 2 h with 0.1 μM dexamethasone to synchronize the oscillators. The medium was then replaced with assay medium supplemented with 0.1 mM luciferin and the luminescence rhythm was monitored for 4 days or more. Compounds were added to the culture dishes at 10 μM and left continuously. DMSO was used as a solvent control. Regression analyses were used to determine period and phase of the luminescence rhythms. 3a. Time-course of a typical luminescence rhythm recorded in control cells (◯) or cells treated with indirubin 15 (•). White arrows indicate the peaks of luminescence in control cells, black arrows indicate the peaks of luminescence in indirubin 15 treated cells. 3b. Period lengths calculated in cells exposed to various compounds. C, control; K, kenpaullone.
The cells were cultured in DMEM (11965-092, GIBCO/Invitrogen) supplemented with 5% FBS, 50 units/ml penicillin, and 50 μg/ml streptomycin in a 5% CO2 incubator at 37° C. […] The luminescence rhythm was monitored in a LumiCycle (Actimetrics Inc., Evanston, Ill., USA). […]

For a further assay, the target named is CDK5/p25 (Homo sapiens, UniProt Q00535). Nature of the assay: CDK5/p25 kinase assay (histone H1, 15 μM ATP). Type of assay: biochemical. Conditions: 30° C., 30 min. As to the method: (§1) Blank values were subtracted and activities calculated as pmoles of phosphate incorporated during a […] incubation. The activities were expressed in % of the maximal activity, i.e. in the absence of inhibitors. Controls were performed with appropriate dilutions of dimethylsulfoxide. Phosphorylation of the substrate was assessed by the P81 phosphocellulose assay.
CDK5/p25 was reconstituted by mixing equal amounts of recombinant human CDK5 and p25 expressed in E. coli as GST (Glutathione-S-transferase) fusion proteins and purified by affinity chromatography on glutathione-agarose (p25 is a truncated version of p35, the 35 kDa CDK5 activator). Its activity was assayed with histone H1 in buffer C as described for CDK1/cyclin B.

Another assay has as its target GSK-3α/β. Nature of the assay: GSK-3α/β kinase assay (GS-1 substrate, 15 μM ATP). Type of assay: biochemical, porcine. The note with it: 30° C., 30 min, read-out: GSK3 IC50. As to the method: as §1
GSK-3α/β was purified from porcine brain by affinity chromatography on immobilized axin^5. […] ATP (3,000 Ci/mmol; 10 mCi/ml) in a final volume of 30 μl. After 30 min. incubation at 30° C., 25 μl aliquots of supernatant were processed as described above.

The target in the next assay is CDK1/cyclin B. As to the kind of experiment: CDK1/cyclin B kinase assay (histone H1, 15 μM ATP). Conditions: 30° C., 30 min. The assay is classed as biochemical, starfish (Marthasterias glacialis).

Each structure is given as a SMILES string.

Chain of CDK5/p25 (Q00535 whole entry, the tested form may be a part): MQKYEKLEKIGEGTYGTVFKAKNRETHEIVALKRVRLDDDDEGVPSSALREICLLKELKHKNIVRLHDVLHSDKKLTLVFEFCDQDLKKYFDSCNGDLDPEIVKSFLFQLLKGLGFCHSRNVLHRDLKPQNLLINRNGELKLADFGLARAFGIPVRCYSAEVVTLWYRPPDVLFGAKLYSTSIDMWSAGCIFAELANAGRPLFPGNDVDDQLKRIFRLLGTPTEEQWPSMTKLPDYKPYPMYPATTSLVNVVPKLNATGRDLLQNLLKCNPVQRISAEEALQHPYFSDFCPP
Chain of CDK5/p25 (Q15078 99-307 partner limits assumed): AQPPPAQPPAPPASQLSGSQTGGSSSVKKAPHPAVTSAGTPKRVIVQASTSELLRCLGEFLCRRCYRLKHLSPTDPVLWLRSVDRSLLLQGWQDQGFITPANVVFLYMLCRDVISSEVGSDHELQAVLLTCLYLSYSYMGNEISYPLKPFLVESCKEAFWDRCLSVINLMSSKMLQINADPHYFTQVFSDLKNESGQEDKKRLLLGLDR

For the compound `O=C1Nc2cc(Br)ccc2/C1=C1/Nc2ccccc2/C1=N\OCCN1CCN(CCOCCO)CC1` [Cpd 15, (2′Z-3′E)-6-Bromoindirubin-3′-[O-(2-{4-[2-(2-hydroxyethoxy)-ethyl]piperazin-1-yl}ethyl)oxime]], the “Circadian period length of luminescence rhythm” value in assay [1] is “gradual shortening of the period length”. The IC50 against CDK5/p25 worked out at 310 nM; on GSK-3α/β, 14 nM; against CDK1/cyclin B, 900 nM.
